Patent US9120749B2, “Quinoline derivatives and MELK inhibitors containing the same” (ONCOTHERAPY SCIENCE, INC., priority 2010, dated 2015)
Structures can show the parent of a compound that is named as a salt.

Key:
[1] = system: DU4475 cells; assay: Cell-based assay: anti-proliferative activity, Cell Counting Kit-8, 72 hours (DU4475); details: Homo sapiens, DU-4475
[2] = system: A549 cells; assay: Cell-based assay: anti-proliferative activity, Cell Counting Kit-8, 72 hours (A549); details: Homo sapiens, A549, 72 h, 72 hours
Outline: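 A549 cells seeded in 96-well plates and exposed to candidate inhibitors for 72 hours. Growth measured with Cell Counting Kit-8; IC50 values calculated from the dose response.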

[3] = system: HT-1197 cells; assay: Cell-based assay: anti-proliferative activity, Cell Counting Kit-8, 72 hours (HT-1197, negative control without MELK expression); details: Homo sapiens, HT1197, 72 h, HT1197 cells (negative control), 72 hours
Outline: (§1)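 Proliferation read with Cell Counting Kit-8 after 72 hours of inhibitor treatment, from seeding of 2,000–3,000 cells/well. Lines: T47D, A549, BT-549; HT-1197, lacking MELK by western blot, served as negative control. IC50 derived.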

[4] = system: 22Rv1 cells; assay: Cell-based assay: anti-proliferative activity, Cell Counting Kit-8, 72 hours (22Rv1); details: Homo sapiens
[5] = system: T47D cells; assay: Cell-based assay: anti-proliferative activity, Cell Counting Kit-8, 72 hours (T47D); details: Homo sapiens, T47D, 72 h
Outline: as §1

[6] = biological target: MELK (Homo sapiens, UniProt Q14680); assay: Kinase assay: MELK activity, phosphorylation of FITC-labeled histone H3 peptide measured by IMAP fluorescence polarization; assay type: biochemical; details: MELK kinase assay, IMAP fluorescence polarization, 50 micro-M ATP; read-out: IC50 (μM) (kinase assay)
Outline: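 Fluorescence polarization was measured 0.5 h (room temperature) after quenching with threefold volume of progressive binding solution. Test compounds from 12.5 mM DMSO stocks were assayed at 1% DMSO.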

Chain of MELK (Q14680 whole entry, looked up): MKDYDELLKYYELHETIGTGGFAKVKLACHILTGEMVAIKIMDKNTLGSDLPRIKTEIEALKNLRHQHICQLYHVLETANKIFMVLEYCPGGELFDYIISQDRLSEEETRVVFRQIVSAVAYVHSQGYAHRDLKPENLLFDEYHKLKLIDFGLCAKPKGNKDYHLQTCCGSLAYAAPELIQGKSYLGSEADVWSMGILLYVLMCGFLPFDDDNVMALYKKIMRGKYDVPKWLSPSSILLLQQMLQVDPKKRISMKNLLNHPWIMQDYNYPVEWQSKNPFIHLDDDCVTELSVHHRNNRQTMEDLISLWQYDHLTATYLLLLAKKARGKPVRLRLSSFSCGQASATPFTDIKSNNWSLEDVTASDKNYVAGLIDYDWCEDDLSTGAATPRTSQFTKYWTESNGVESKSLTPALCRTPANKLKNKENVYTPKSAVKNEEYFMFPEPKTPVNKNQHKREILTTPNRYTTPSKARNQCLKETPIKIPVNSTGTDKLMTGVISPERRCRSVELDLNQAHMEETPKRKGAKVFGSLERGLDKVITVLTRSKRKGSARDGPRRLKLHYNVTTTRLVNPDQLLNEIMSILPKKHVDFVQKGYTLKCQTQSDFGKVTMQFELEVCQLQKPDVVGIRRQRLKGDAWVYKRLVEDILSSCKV

Compound	IC50 [1] [µM]	IC50 [2] [µM]	IC50 [3] [µM]	IC50 [4] [µM]	IC50 [5] [µM]	IC50 [6] [µM]
CC(=O)c1cnc2ccc(-c3cc(F)c(O)c(Cl)c3)cc2c1N[C@H]1CC[C@H](NC(=O)CN(C)C)CC1 [Example 876]	0.092	0.16	1.5	0.14	0.033	0.0088
CC(=O)c1cnc2ccc(-c3cc(Cl)c(O)c(Cl)c3)cc2c1N[C@H]1CC[C@H](NC(=O)CN(C)C)CC1 [Example 877, N-(1R,4R)-4-((3-acetyl-6-(3,5-dichloro-4-hydroxyphenyl)quinolin-4-yl)amino)cyclohexyl)-2-(dimethylamino)acetamide hydrochloride]	0.11	0.2	2	0.18	0.11	0.0027
CS(=O)(=O)c1cnc2ccc(-c3cc(F)c(O)c(Cl)c3)cc2c1Nc1cccc(CCN2CCCC2)c1 [Example 879, 2-chloro-6-fluoro-4-(3-(methylsulfonyl)-4-((3-(2-(pyrrolidin-1-yl)ethyl)phenyl)amino)quinolin-6-yl)phenol hydrochloride]	0.9	3.8	9	3	1.1	0.011
CC(=O)c1cnc2ccc(-c3cc(F)c(O)c(Cl)c3)cc2c1Nc1cncc(CCN2CCCC2)c1 [Example 880, 1-(6-(3-chloro-5-fluoro-4-hydroxyphenyl)-4-((5-(2-(pyrrolidin-1-yl)ethyl)pyridin-3-yl)amino)quinolin-3-yl)ethanone hydrochloride]	0.96	1.8	46	7.4	3.1	0.04
O=C(c1cnc2ccc(-c3cc(F)c(O)c(Cl)c3)cc2c1Nc1cncc(CCN2CCCC2)c1)C1CC1 [Example 882, (6-(3-chloro-5-fluoro-4-hydroxyphenyl)-4-((5-(2-(pyrrolidin-1-yl)ethyl)pyridin-3-yl)amino)quinolin-3-yl)(cyclopropyl)methanone]	0.15	0.27	100	3.1	100	0.019
CN(C)CCOc1ccc(Nc2c(S(C)(=O)=O)cnc3ccc(-c4cc(Cl)c(O)c(Cl)c4)cc23)cn1 [Example 884, 2,6-dichloro-4-(4-((6-(2-(dimethylamino)ethoxy)pyridin-3-yl)amino)-3-(methylsulfonyl)quinolin-6-yl)phenol hydrochloride]	0.51	2.1	13	4.1	0.91	0.0035
CN(C)CCOc1ccc(Nc2c(S(C)(=O)=O)cnc3ccc(-c4cc(F)c(O)c(Cl)c4)cc23)cn1 [Example 885, 2-chloro-4-(4-((6-(2-(dimethylamino)ethoxy)pyridin-3-yl)amino)-3-(methylsulfonyl)quinolin-6-yl)-6-fluorophenol hydrochloride]	0.62	3	10	2.5	0.7	0.0083
CC(=O)c1cnc2ccc(-c3cc(Cl)c(O)c(Cl)c3)cc2c1N[C@H]1CC[C@H](NC(=O)[C@H](C)N)CC1 [Example 886]	0.016	0.64	11	0.088	0.045	0.00066
CN(C)C1CCN(c2ccc(Nc3c(S(C)(=O)=O)cnc4ccc(-c5cc(F)c(O)c(Cl)c5)cc34)cn2)C1 (stereo not drawn) [Example 889, 2-chloro-4-(4-((6-(3-(dimethylamino)pyrrolidin-1-yl)pyridin-3-yl)amino)-3-(methylsulfonyl)quinolin-6-yl)-6-fluorophenol hydrochloride]	1.2	2.5	12	1.8	1.5	0.0092
CS(=O)(=O)c1cnc2ccc(-c3cc(F)c(O)c(Cl)c3)cc2c1N[C@H]1CC[C@H](CN2CCCC2)CC1 [Example 891, 2-chloro-6-fluoro-4-(3-(methylsulfonyl)-4-((1R,4R)-4-(pyrrolidin-1-ylmethyl)cyclohexyl)amino)quinolin-6-yl)phenol hydrochloride]	0.46	1.3	2.4	0.92	0.73	0.0095
CC(=O)c1cnc2ccc(-c3cc(Cl)c(O)c(Cl)c3)cc2c1N[C@H]1CC[C@H](C(=O)NCCN(C)C)CC1 [Example 892, (1r,4r)-4-((3-acetyl-6-(3,5-dichloro-4-hydroxyphenyl)quinolin-4-yl)amino)-N-(2-(dimethylamino)ethyl)cyclo-hexanecarboxamide hydrochloride]	0.4	6.3	100	1.1	0.59	0.0023
CC(=O)c1cnc2ccc(-c3cc(F)c(O)c(Cl)c3)cc2c1N[C@H]1CC[C@H](C(=O)NCCN(C)C)CC1 [Example 893, (1r,4r)-4-((3-acetyl-6-(3-chloro-5-fluoro-4-hydroxyphenyl)quinolin-4-yl)amino)-N-(2-(dimethylamino)ethyl) cyclohexanecarboxamide hydrochloride]	0.67	100	100	1.6	0.59	0.0052
CC(=O)c1cnc2ccc(-c3ccc4nc[nH]c4c3)cc2c1Nc1cnn(C2CCN(C)CC2)c1 [Example 895, 1-(6-(1H-benzo[d]imidazol-6-yl)-4-((1-(1-methylpiperidin-4-yl)-1H-pyrazol-4-yl)amino)quinolin-3-yl)ethanone hydrochloride]	9.1	4	9.3	2.2	0.94	0.065
CC(=O)c1cnc2ccc(-c3cc(Cl)c(O)c(Cl)c3)cc2c1Nc1cc(CCN2CCCC2)cnc1C [Example 897, 1-(6-(3,5-dichloro-4-hydroxyphenyl)-4-((2-methyl-5-(2-(pyrrolidin-1-yl)ethyl)pyridin-3-yl)amino)quinolin-3-yl)ethanone]	8.8	8.5	71	11	4.5	0.021
CC(=O)c1cnc2ccc(-c3cc(Cl)c(O)c(Cl)c3)cc2c1N[C@H]1CC[C@H](C(=O)N2CCN(C)CC2)CC1 [Example 898, 1-(6-(3,5-dichloro-4-hydroxyphenyl)-4-((1R,4R)-4-(4-methylpiperazine-1-carbonyl)cyclohexyl)amino) quinolin-3-yl)ethanone hydrochloride]	0.96	0.87	3	0.78	0.44	0.0044
CN1CCC(n2cc(Nc3c(S(C)(=O)=O)cnc4ccc(-c5cc(Cl)c(O)c(Cl)c5)cc34)cn2)CC1 [Example 899, 2,6-dichloro-4-(4-((1-(1-methyl-piperidin-4-yl)-1H-pyrazol-4-yl)amino)-3-(methylsulfonyl)quinolin-6-yl)phenol hydrochloride]	0.26	4	10	1.5	1.6	0.0017
CN1CCC(n2cc(Nc3c(S(C)(=O)=O)cnc4ccc(-c5cc(F)c(O)c(Cl)c5)cc34)cn2)CC1 [Example 900, 2-chloro-6-fluoro-4-(4-((1-(1-methyl-piperidin-4-yl)-1H-pyrazol-4-yl)amino)-3-(methylsulfonyl)quinolin-6-yl)phenol hydrochloride]	0.54	10	10	3.1	1.6	0.0032
CC(=O)c1cnc2ccc(-c3ccc4nc[nH]c4c3)cc2c1Nc1ccc(N2CCN(C)CC2)nc1 [Example 901, 1-(6-(1H-benzo[d]imidazol-6-yl)-4-((6-(4-methylpiperazin-1-yl)pyridin-3-yl)amino)quinolin-3-yl)ethanone hydrochloride]	9.5	2.3	9.1	2.1	1.2	0.1
CC(=O)c1cnc2ccc(-c3ccc4nc[nH]c4c3)cc2c1Nc1ccc(OCCN(C)C)nc1 [Example 902, 1-(6-(1H-benzo[d]imidazol-6-yl)-4-((6-(2-(dimethylamino)ethoxy)pyridin-3-yl)amino)quinolin-3-yl) ethanone hydrochloride]	14	2.9	12	3.1	3.3	0.042
CC(=O)c1cnc2cc(F)c(-c3cc(Cl)c(O)c(Cl)c3)cc2c1N[C@H]1CC[C@H](CN(C)C)CC1 [Example 903, 1-(6-(3,5-dichloro-4-hydroxyphenyl)-4-((1R,4R)-4-((dimethylamino)methyl)cyclohexyl)amino)-7-fluoroquinolin-3-yl)ethanone hydrochloride]	0.16	0.36	1.5	0.27	0.55	0.0017
